In patent US9279769B2, “Proteins that efficiently generate singlet oxygen” (The Regents of the University of California, priority 2010, dated 2016):

Columns and labels:
[1] = target: T1, Arabidopsis thaliana phototropin 2 (AtPhot2) LOV2 domain (residues 387-492) variant AtminiSOG0.2 (miniSOG0.2, miniSOG), 1387M/N390S/S394T/S409G/C426G/F470L, SEQ ID NO: 2 (Arabidopsis thaliana, UniProt P93025, C426G/F470L/N390S/S394T/S409G); test: Equilibrium dialysis of miniSOG (FMN dissociation constant); type: binding
T1 construct: can be engineered into a small (106-residue) SOG; made in house
Source text: Mass spectrometry confirmed that the flavin cofactor is FMN. Equilibrium dialysis reported a dissociation constant of 170±8 pM (Table 2), similar to values for some flavoproteins (e.g., 260±60 pM for a flavodoxin [23]) and consistent with the crystal structures of LOV domains, which show FMN deeply buried inside the protein core.

flavodoxin = settings: literature value for a flavodoxin [23]; read-out: dissociation constant; cited from earlier work
[2] = literature value; cited from earlier work
[3] = 1O2 quantum yield measured with ADPA as 1O2 sensor, FMN as standard; type: physicochemical; settings: for 1O2 (singlet oxygen generation) quantum yield: ADPA sensor in PBS, illuminated at 480/30 nm, FMN standard
Experimental: (§1) FIG. 3. (A) Absorbance spectrum of miniSOG0.2 determined between 400 nm and 500 nm (B) Normalized absorbance (left) and emission (right) spectra of miniSOG0.2. The fluorescence quantum yield of miniSOG0.2 was determined to be 0.30. (C) ADPA degradation by miniSOG0.2. ADPA was mixed with miniSOG0.2 in PBS and illuminated at 480/30 nm. ADPA emission spectra taken after indicated illumination times. (D) Degradation of ADPA by illumination of miniSOG0.2 (▴) or free FMN (♦). Flavin mononucleotide (FMN) was used as the standard for the quantum yield measurement. The data represents one typical measurement. The averaged absorbance intensity of FMN and miniSOG0.2 in this measurement is 0.064 and 0.070 respectively in arbitrary units. Singlet-oxygen-generation quantum yield of miniSOG0.2 was determined to be 0.47±0.05 (from three independent measurements).
(§2) To increase the brightness of the C426G mutant, we also performed saturation mutagenesis of other residues surrounding the chromophore binding site. […] The ^1O2 quantum yield of miniSOG0.2 (0.47±0.05) was measured using anthracene-9,10-dipropionic acid (ADPA) as a ^1O2 sensor (FIG. 1E). Free FMN was used as the standard for the measurement of ^1O2 generation (quantum yield 0.51).

[4] = fluorescence quantum yield; type: physicochemical
Experimental: as §1
(§3) […] was synthesized by overlap extension PCR [48]. Genetic libraries were constructed by saturation and random mutagenesis and DNA shuffling. Mutants were fused to IFP1.4 by overlap extension PCR and cloned into a modified pBAD vector containing the heme oxygenase-1 gene from cyanobacteria. Libraries were expressed in E. coli strain TOP10 and screened by imaging the agar plates with colonies in the IFP channel before and after blue light illumination. Protein purification and spectroscopic characterization experiments were done as described.

[5] = absorbance spectrum, extinction coefficients; type: physicochemical
Experimental: as §2, §3

HEK293 cells [6] = test: growth rate of HEK293 cells overexpressing the protein, no light; type: cell-based; settings: for Cell number: HEK293 cells; for toxicity in the absence of light: overexpression in cells, no illumination
Source text: (§4) Feedback pathways involving enzymes such as riboflavin kinase (EC 2.7.1.26) and FAD (flavin adenine dinucleotide) diphosphatase (EC 3.6.1.18) probably regulate intracellular FMN to titrate endogenous flavoproteins and miniSOG [25]. Riboflavin kinase phosphorylates riboflavin into FMN, while FAD diphosphatase catalyzes the production of FMN from FAD.
DNA encoding miniSOG with codons optimized for mammals was synthesized by overlap extension PCR [48]. MiniSOG fusions were cloned into pcDNA3.1 vector. HEK293 and HeLa cells were transfected with miniSOG or chimera cDNAs using Fugene, then imaged 24-48 h later. Cultured cortical neurons were transfected by Amaxa electroporation (Lonza AG, Germany) and imaged 1-2 wk later.

HEK293 cells [7] = test: FMN content of HEK293 cells after overexpression; type: cell-based; settings: overexpression in HEK293 cells
Source text: as §4

## Cc1cc2nc3c(=O)[nH]c(=O)nc-3n(C[C@H](O)[C@H](O)[C@H](O)COP(=O)(O)O)c2cc1C [FMN, flavin mononucleotide]
[1]; [apo] * [FMN]/[holo], equilibrium dialysis, dialysis time 24 hrs
  Kd: 0.124 ± 0.0057 nM
[1]; [apo] * [FMN]/[holo], equilibrium dialysis, dialysis time 48 hrs
  Kd: 0.174 ± 0.0053 nM
[1]; [apo] * [FMN]/[holo], equilibrium dialysis, dialysis time 72 hrs
  Kd: 0.17 ± 0.0084 nM
[1]; dissociation constant (binds endogenous FMN very tightly), summary statement
  Kd: ~0.1 nM
[1]; dissociation constant, equilibrium dialysis, FMN cofactor
  Kd: 0.17 ± 0.008 nM
flavodoxin
  Kd: 0.26 ± 0.06 nM

## Cc1cc2nc3c(=O)[nH]c(=O)nc-3n(C[C@H](O)[C@H](O)[C@H](O)COP(=O)(O)O)c2cc1C [Free FMN, flavin mononucleotide]
[2]
  1O2 quantum yield: 0.51

## O=c1ccc2nc3ccc(O)c([As]4SCCS4)c3oc-2c1[As]1SCCS1 [ReAsH]
[2]
  1O2 quantum yield: 0.024

## CC1=NC(=Cc2ccc(O)cc2)C(=O)N1C [naked GFP chromophore]
[2]
  1O2 quantum yield: 0.004

## AtminiSOG0.2: 106-residue mutant of Arabidopsis thaliana phototropin 2 residues 387-492, 1387M/N390S/S394T/S409G/C426G/F470L, SEQ ID NO:2, binds FMN
[3]
  1O2 quantum efficiency relative to ReAsH on a tetracysteine motif: about 20 times
[3]; listed as AtminiSOG
  1O2 (singlet oxygen generation) quantum yield: 0.47
[3]; listed as miniSOG0.2
  1O2 (singlet oxygen generation) quantum yield: 0.47±0.05
[4]; listed as AtminiSOG
  fluorescence quantum yield: 0.30
[4]; listed as miniSOG
  fluorescence quantum yield: 0.37
[4]; listed as miniSOG0.2
  fluorescence quantum yield: 0.30
[5]; at 448 nm
  extinction coefficient: (16.7±0.7)×10^3 M^−1cm^−1
[5]; at 448 nm, listed as AtminiSOG
  extinction coefficient: 16,700 M^−1cm^−1
[5]; at 473 nm
  extinction coefficient: (13.6±0.5)×10^3 M^−1cm^−1
[5]; at 473 nm, listed as AtminiSOG
  extinction coefficient: 13,600 M^−1cm^−1
HEK293 cells [6]; Day 0, transfection efficiency >90%
  Cell number: 200 10^3
HEK293 cells [6]; Day 1, transfection efficiency >90%
  Cell number: 390 10^3
HEK293 cells [6]; Day 2, transfection efficiency >90%
  Cell number: 940 10^3
HEK293 cells [6]
  toxicity in the absence of light: no obvious toxicity
HEK293 cells [6]; listed as AtminiSOG
  toxicity in the absence of light: without any obvious toxicity
HEK293 cells [7]
  increase of FMN content: ~3 fold
